Laboratory results as given in patent publication US9073974B2, “RGD-containing cyclic peptides” (The Regents of the University of California, priority 2009, dated 2015).
Numbered stars: 1 amine (or outer) side, 2 acyl side, 3 side chain; on linkers, the order of the positions; unused ones are H or OH. Bridge positions count the residues as written; N and C are the ends. Square brackets hold non-standard residues; d marks the D form. Peptide text beside a SMILES is read from it. * marks the point of attachment. Benzoyl(4-NO2) = O=C(c1ccc([N+](=O)[O-])cc1)*; Pro(5R-Ph) = O=C(O)[C@@H]1CC[C@H](c2ccccc2)N1; Benzoyl(4-Ph) = O=C(c1ccc(-c2ccccc2)cc1)*; Phenylacetyl(4-Cl) = O=C(Cc1ccc(Cl)cc1)*; Cyclohexylacetyl = O=C(CC1CCCCC1)*; X2 = O=C(C1(N[*:1])CCC(O)CC1)[*:2]; 2Naphthoyl = O=C(c1ccc2ccccc2c1)*; NMeR = CN[C@@H](CCCNC(=N)N)C(=O)O; hArg = N=C(N)NCCCC[C@H](N)C(=O)O; NMeD = CN[C@@H](CC(=O)O)C(=O)O; dPen = CC(C)(S)[C@@H](N)C(=O)O; dTle = CC(C)(C)[C@@H](N)C(=O)O; Agp = N=C(N)NC[C@H](N)C(=O)O; X4 = O=C(c1ccc(Br)o1)*; βAla = NCCC(=O)O; Sar = CNCC(=O)O

Target: αvβ3 integrin (Homo sapiens, UniProt P05106+P06756)
Experiment: Inhibition of biotinylated LXW7 binding to αvβ3-K562 cells (flow cytometry)
Set-up: expressed in transfected cells; host or cells: K562 (gift of Dr. Yoshikazu Takada, UC Davis)
Details: LXW9-92: inhibiting the binding of biotinylated LXW7 against αvβ3-K562 cells, LXW7 as internal reference
Experimental: The apparent IC50 were calculated using Graph Prism software (≦www.graphpad.com≧).
The samples were analyzed with Coulter XL-MCL flow cytometry. The histogram and mean fluorescence intensity (MFI) were determined. The apparent Kd, IC50 were calculated using Graph Prism software (≦www.graphpad.com≧).

Chain of αvβ3 integrin (P06756 31-889 limits assumed): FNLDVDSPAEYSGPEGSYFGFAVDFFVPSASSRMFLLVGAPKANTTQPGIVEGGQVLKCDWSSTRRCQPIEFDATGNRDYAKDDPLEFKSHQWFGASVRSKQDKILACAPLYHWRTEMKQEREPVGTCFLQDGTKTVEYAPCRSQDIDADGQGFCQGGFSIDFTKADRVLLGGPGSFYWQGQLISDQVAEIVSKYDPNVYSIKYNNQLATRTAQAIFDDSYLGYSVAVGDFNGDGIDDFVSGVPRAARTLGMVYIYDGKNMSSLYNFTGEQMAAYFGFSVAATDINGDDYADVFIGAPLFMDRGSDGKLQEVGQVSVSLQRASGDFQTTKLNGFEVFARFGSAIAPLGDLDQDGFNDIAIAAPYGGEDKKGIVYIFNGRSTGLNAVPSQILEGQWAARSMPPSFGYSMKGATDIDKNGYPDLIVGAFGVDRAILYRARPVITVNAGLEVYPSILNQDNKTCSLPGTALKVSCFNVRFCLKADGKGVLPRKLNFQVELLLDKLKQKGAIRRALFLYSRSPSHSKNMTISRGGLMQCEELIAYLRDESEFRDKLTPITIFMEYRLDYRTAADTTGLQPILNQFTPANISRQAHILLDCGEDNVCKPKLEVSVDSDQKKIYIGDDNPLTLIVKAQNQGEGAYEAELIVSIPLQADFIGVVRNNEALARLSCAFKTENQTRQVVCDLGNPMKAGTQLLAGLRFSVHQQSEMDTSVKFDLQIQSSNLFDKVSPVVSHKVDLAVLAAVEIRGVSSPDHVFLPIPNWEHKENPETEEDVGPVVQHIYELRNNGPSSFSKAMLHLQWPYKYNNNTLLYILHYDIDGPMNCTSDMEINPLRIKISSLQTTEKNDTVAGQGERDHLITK
Chain of αvβ3 integrin (P06756 891-1048 partner limits assumed): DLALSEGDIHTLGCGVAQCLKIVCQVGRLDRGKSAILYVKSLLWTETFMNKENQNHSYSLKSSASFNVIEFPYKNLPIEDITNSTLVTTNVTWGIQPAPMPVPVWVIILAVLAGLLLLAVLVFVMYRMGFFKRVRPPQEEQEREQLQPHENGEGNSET
Chain of αvβ3 integrin (P05106 27-788): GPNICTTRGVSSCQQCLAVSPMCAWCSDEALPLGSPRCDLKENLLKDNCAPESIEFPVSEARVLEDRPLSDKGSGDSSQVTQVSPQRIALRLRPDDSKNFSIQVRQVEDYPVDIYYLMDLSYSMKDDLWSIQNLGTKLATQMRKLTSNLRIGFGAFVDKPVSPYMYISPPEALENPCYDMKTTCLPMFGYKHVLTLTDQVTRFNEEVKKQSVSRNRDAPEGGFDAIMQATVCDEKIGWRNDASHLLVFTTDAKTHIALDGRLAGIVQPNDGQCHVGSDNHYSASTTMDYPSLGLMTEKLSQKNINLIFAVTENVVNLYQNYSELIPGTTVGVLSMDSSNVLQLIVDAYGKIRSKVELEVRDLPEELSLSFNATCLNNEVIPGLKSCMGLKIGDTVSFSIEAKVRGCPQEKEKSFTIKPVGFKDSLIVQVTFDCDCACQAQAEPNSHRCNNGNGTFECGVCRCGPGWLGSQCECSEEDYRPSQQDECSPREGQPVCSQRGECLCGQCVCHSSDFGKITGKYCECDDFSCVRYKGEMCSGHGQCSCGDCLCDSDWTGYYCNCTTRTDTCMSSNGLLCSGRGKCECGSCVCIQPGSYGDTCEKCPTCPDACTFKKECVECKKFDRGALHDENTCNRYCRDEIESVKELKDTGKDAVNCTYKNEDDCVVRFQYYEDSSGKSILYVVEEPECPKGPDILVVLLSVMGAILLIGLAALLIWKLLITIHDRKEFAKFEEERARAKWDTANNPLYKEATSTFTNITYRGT

IC50 [µM]	SMILES
> 20	CN1CC(=O)N[C@@H](CCCNC(=N)N)C(=O)NCC(=O)N[C@@H](CC(=O)O)C(=O)NC2(CCC(O)CC2)C(=O)N[C@H](C(C)(C)C)C(=O)N[C@@H](C(N)=O)CSSC[C@@H](N)C1=O (stereo partly shown) [LXW33, c-Sar-RGD-Ahch-DBug-c] (H-[dC][Sar]RGD[X2][dTle][dC]-NH2; disulfide 1-8)
> 20	CC[C@@H](C)[C@H]1NC(=O)C2(CCC(O)CC2)NC(=O)[C@H](CC(=O)O)NC(=O)CNC(=O)[C@H](CCCNC(=N)N)NC(=O)CN(C)C(=O)[C@H](N)CSSC[C@@H](C(N)=O)NC1=O (stereo partly shown) [LXW42, c-Sar-RGD-Ahch-iC] (H-[dC][Sar]RGD[X2][dI]C-NH2; disulfide 1-8)
> 20	CC(C)[C@H]1NC(=O)[C@@H](CC(=O)O)NC(=O)[C@H](CC(=O)O)NC(=O)CNC(=O)[C@H](CCCCNC(=N)N)NC(=O)CNC(=O)[C@H](N)CSSC[C@H](C(N)=O)NC1=O [LXW51, cG-HoArg-GDdvc] (H-[dC]G[hArg]GD[dD][dV][dC]-NH2; disulfide 1-8)
> 20	CC(C)[C@H]1NC(=O)[C@@H](CC(=O)O)NC(=O)[C@H](CCC(=O)O)NC(=O)CNC(=O)[C@H](CNC(=N)N)NC(=O)CNC(=O)[C@H](N)CSSC[C@H](C(N)=O)NC1=O [LXW59, cG-Agp-GEdvc] (H-[dC]G[Agp]GE[dD][dV][dC]-NH2; disulfide 1-8)
> 20	C=CC[C@H]1NC(=O)[C@@H](CC(=O)O)NC(=O)[C@H](CC(=O)O)NC(=O)CNC(=O)[C@H](CCCNC(=N)N)NC(=O)CNC(=O)[C@H](N)CSSC[C@@H](C(N)=O)NC1=O [LXW34, cGRGDd-DAgl-C]
> 20	CC(C)[C@H]1NC(=O)[C@@H](CC(=O)O)NC(=O)[C@H](CC(=O)O)NC(=O)CN(C)C(=O)[C@H](CCCNC(=N)N)NC(=O)CNC(=O)[C@H](N)CSSC[C@H](C(N)=O)NC1=O [LXW54, cGR-Sar-Ddvc] (H-[dC]GR[Sar]D[dD][dV][dC]-NH2; disulfide 1-8)
> 20	N=C(N)NCCC[C@@H]1NC(=O)CNC(=O)[C@H](N)CSSC[C@@H](C(N)=O)NC(=O)C2(CCOCC2)NC(=O)[C@@H](CC(=O)O)NC(=O)[C@H](CC(=O)O)NC(=O)CNC1=O [LXW41, cGRGDd-Actp-C]
> 20	N=C(N)NCCC[C@@H]1NC(=O)CNC(=O)[C@@H](N)CSSC[C@H](C(N)=O)NC(=O)[C@@H]2CC[C@H](c3ccccc3)N2C(=O)[C@@H](CCC(=O)O)NC(=O)[C@H](CC(=O)O)NC(=O)CNC1=O [LXW45, CGRGDe-Ppca-c] (H-CGRGD[dE][Pro(5R-Ph)][dC]-NH2; disulfide 1-8)
> 20	CC(C)[C@H]1NC(=O)[C@@H](CC(=O)O)NC(=O)[C@H](CC(=O)O)N(C)C(=O)CNC(=O)[C@H](CCCNC(=N)N)NC(=O)CNC(=O)[C@H](N)CSSC[C@H](C(N)=O)NC1=O [LXW55, cGRG-(NMe)Asp-dvc] (H-[dC]GRG[NMeD][dD][dV][dC]-NH2; disulfide 1-8)
> 20	CN1CC(=O)N[C@@H](CCCNC(=N)N)C(=O)NCC(=O)N[C@@H](CC(=O)O)C(=O)N[C@H](CC(=O)O)C(=O)NC2(CCOCC2)C(=O)N[C@H](C(N)=O)CSSC[C@H](N)C1=O [LXW36, C-Sar-RGDd-Actp-C]

Same assay, conditions: LXW9-92: inhibiting the binding of biotinylated LXW7 against αvβ3-K562 cells; class symbols

IC50 [µM]	SMILES
< 1	CC(C)[C@H]1NC(=O)[C@@H](CC(=O)O)NC(=O)[C@H](CC(=O)O)NC(=O)CNC(=O)[C@H](CCCNC(=N)N)NC(=O)CNC(=O)[C@H](NC(=O)c2ccc(-c3ccccc3)cc2)CSSC[C@H](C(N)=O)NC1=O [LXW84, biphenyl-4-carbonyl-cGRGDdvc] ({Benzoyl(4-Ph)}-[dC]GRGD[dD][dV][dC]-NH2; disulfide 1-8)
> 10	N=C(N)NCCC[C@@H]1NC(=O)CNC(=O)[C@H](N)CSSC[C@@H](C(N)=O)NC(=O)[C@@H](CC(=O)O)NC(=O)[C@@H](CO)NC(=O)[C@H](CC(=O)O)NC(=O)CNC1=O [LXW62, cGRGDsdC] (H-[dC]GRGD[dS][dD]C-NH2; disulfide 1-8)
< 1	CC(C)(C)[C@H]1NC(=O)[C@@H](CC(=O)O)NC(=O)[C@H](CC(=O)O)NC(=O)CNC(=O)[C@H](CCCNC(=N)N)NC(=O)CNC(=O)[C@H](N)CSSC[C@H](C(N)=O)NC1=O [LXW18, cGRGDd-DBug-c]
< 1	CC(C)[C@H]1NC(=O)[C@@H](CC(=O)O)NC(=O)[C@H](CC(=O)O)NC(=O)CNC(=O)[C@H](CCCNC(=N)N)NC(=O)CNC(=O)[C@H](NC(=O)CCN)CSSC[C@H](C(N)=O)NC1=O [LXW56, 3-amino propanoyl-cGRGDdvc] (H-[βAla][dC]GRGD[dD][dV][dC]-NH2; disulfide 2-9)
1 to 10	CC(C)[C@H]1NC(=O)[C@@H](CC(=O)O)NC(=O)[C@H](CC(=O)O)NC(=O)CNC(=O)[C@H](CCCNC(=N)N)NC(=O)CNC(=O)[C@H](N)CSSC[C@@H](C(N)=O)NC1=O [LXW10, cGRGDdvC] (H-[dC]GRGD[dD][dV]C-NH2; disulfide 1-8)
1 to 10	CC(C)[C@H]1NC(=O)[C@@H](CC(=O)O)NC(=O)[C@H](CC(=O)O)NC(=O)CNC(=O)[C@H](CCCNC(=N)N)NC(=O)CNC(=O)[C@H](NC(=O)c2ccc([N+](=O)[O-])cc2)CSSC[C@H](C(N)=O)NC1=O [LXW82, 4-nitrobezoyl-cGRGDdvc] ({Benzoyl(4-NO2)}-[dC]GRGD[dD][dV][dC]-NH2; disulfide 1-8)
> 10	CC(C)[C@@]1(C)NC(=O)[C@@H](CC(=O)O)NC(=O)[C@H](CC(=O)O)NC(=O)CNC(=O)[C@H](CCCNC(=N)N)NC(=O)CNC(=O)[C@H](N)CSSC[C@H](C(N)=O)NC1=O [LXW23, cGRGDd-D(CaMe)Val-c]
1 to 10	C=CC[C@H]1NC(=O)[C@@H](CC(=O)O)NC(=O)[C@H](CC(=O)O)NC(=O)CNC(=O)[C@H](CCCNC(=N)N)NC(=O)CNC(=O)[C@H](N)CSSC[C@H](C(N)=O)NC1=O [LWX16, cGRGDd-DAgl-c]
< 1	CC(C)[C@H]1NC(=O)[C@@H](CC(=O)O)NC(=O)[C@H](CC(=O)O)NC(=O)CNC(=O)[C@H](CCCNC(=N)N)N(C)C(=O)CNC(=O)[C@H](N)CSSC[C@H](C(N)=O)NC1=O [LXW53, cG-(NMe)Arg-GDdvc] (H-[dC]G[NMeR]GD[dD][dV][dC]-NH2; disulfide 1-8)
1 to 10	CC(C)[C@H]1NC(=O)[C@@H](CC(=O)O)NC(=O)[C@H](CC(=O)O)NC(=O)CNC(=O)[C@H](CCCNC(=N)N)NC(=O)CNC(=O)[C@@H](N)CSSC[C@H](C(N)=O)NC1=O [LXW9, CGRGDdvc] (H-CGRGD[dD][dV][dC]-NH2; disulfide 1-8)
1 to 10	C#CC[C@H]1NC(=O)[C@@H](CC(=O)O)NC(=O)[C@H](CC(=O)O)NC(=O)CNC(=O)[C@H](CCCNC(=N)N)NC(=O)CNC(=O)[C@H](N)CSSC[C@H](C(N)=O)NC1=O [LWX17, cGRGDd-DPra-c]
1 to 10	CC(C)[C@H]1NC(=O)[C@@H](CC(=O)O)NC(=O)[C@H](CC(=O)O)NC(=O)CNC(=O)[C@H](CCCNC(=N)N)NC(=O)CNC(=O)[C@H](NC(=O)c2ccc(Br)o2)CSSC[C@H](C(N)=O)NC1=O [LXW90, 5-bromo-2-furoyl-cGRGDdvc] (X4-[dC]GRGD[dD][dV][dC]-NH2; disulfide 1-8)
1 to 10	CC(C)[C@H]1NC(=O)[C@@H](CC(=O)O)NC(=O)[C@H](CC(=O)O)NC(=O)CNC(=O)[C@H](CCCNC(=N)N)NC(=O)CCNC(=O)[C@H](N)CSSC[C@H](C(N)=O)NC1=O [LXW15, c-β-alanine-RGDdvc] (H-[dC][βAla]RGD[dD][dV][dC]-NH2; disulfide 1-8)
1 to 10	CC(C)[C@H]1NC(=O)[C@@H](CC(=O)O)NC(=O)[C@H](CC(=O)O)NC(=O)CNC(=O)[C@H](CCCNC(=N)N)NC(=O)CNC(=O)[C@H](N)C(C)(C)SSC(C)(C)[C@H](C(N)=O)NC1=O [LXW19, DPen-GRGDdv-DPen] (H-[dPen]GRGD[dD][dV][dPen]-NH2; disulfide 1-8)
1 to 10	N=C(N)NCCC[C@@H]1NC(=O)CNC(=O)[C@H](N)CSSC[C@H](C(N)=O)NC(=O)[C@@H]2CC[C@H](c3ccccc3)N2C(=O)[C@@H](CCC(=O)O)NC(=O)[C@H](CC(=O)O)NC(=O)CNC1=O [LXW71, cGRGDe-Ppca-c] (H-[dC]GRGD[dE][Pro(5R-Ph)][dC]-NH2; disulfide 1-8)
1 to 10	CC(C)[C@H]1NC(=O)[C@@H](CC(=O)O)NC(=O)[C@H](CC(=O)O)NC(=O)CNC(=O)[C@H](CCCNC(=N)N)NC(=O)CNC(=O)[C@H](NC(=O)CC2CCCCC2)CSSC[C@H](C(N)=O)NC1=O [LXW78, cyclohexyl acetyl-cGRGDdvc] (Cyclohexylacetyl-[dC]GRGD[dD][dV][dC]-NH2; disulfide 1-8)
< 1	CC(C)[C@H]1NC(=O)[C@@H](CC(=O)O)NC(=O)[C@H](CC(=O)O)NC(=O)CNC(=O)[C@H](CCCNC(=N)N)NC(=O)CNC(=O)[C@H](NC(=O)c2ccc3ccccc3c2)CSSC[C@H](C(N)=O)NC1=O [LXW89, 2-naphthoyl-cGRGDdvc] (2Naphthoyl-[dC]GRGD[dD][dV][dC]-NH2; disulfide 1-8)
1 to 10	CC(C)[C@H]1NC(=O)[C@@H](CC(=O)O)NC(=O)[C@H](CC(=O)O)NC(=O)CNC(=O)[C@H](CCCNC(=N)N)NC(=O)CNC(=O)[C@H](NC(=O)Cc2ccc(Cl)cc2)CSSC[C@H](C(N)=O)NC1=O [LXW81, p-chlorophenyl acetyl-cGRGDdvc] ({Phenylacetyl(4-Cl)}-[dC]GRGD[dD][dV][dC]-NH2; disulfide 1-8)
< 1	N=C(N)NCCC[C@@H]1NC(=O)CNC(=O)[C@H](N)CSSC[C@H](C(N)=O)NC(=O)[C@@H](Cc2csc3ccccc23)NC(=O)[C@@H](CC(=O)O)NC(=O)[C@H](CC(=O)O)NC(=O)CNC1=O [LXW48, cGRGDd-DBta-c]
< 1	CC(=O)N[C@@H]1CSSC[C@H](C(N)=O)NC(=O)[C@@H](C(C)C)NC(=O)[C@@H](CC(=O)O)NC(=O)[C@H](CC(=O)O)NC(=O)CNC(=O)[C@H](CCCNC(=N)N)NC(=O)CNC1=O [LXW12, Acetyl-cGRGDdvc] (Ac-[dC]GRGD[dD][dV][dC]-NH2; disulfide 1-8)

SMILES	IC50 [µM]
N=C(N)NCCC[C@@H]1NC(=O)CNC(=O)[C@H](N)CSSC[C@H](C(N)=O)NC(=O)[C@@H](Cc2cccc3ccccc23)NC(=O)[C@@H](CC(=O)O)NC(=O)[C@H](CC(=O)O)NC(=O)CNC1=O [LXW64, cGRGDd-DNal1-c]	< 1
